# Experimental data from patent publication US20110224197A1, “PYRIMIDINES AND PYRIDINES USEFUL AS INHIBITORS OF PROTEIN KINASES” (Vertex Pharmaceuticals Incorporated, priority 2008, published 2011).
# Experiments:
# CRMP2 = CRMP2 Phosphorylation Assay; type: cell-based, rat; settings: E16 hippocampal neurons treated for seven days
# Experimental: GSK-3 phosphorylation regulates CRMP2 which is involved in the control of axon outgrowth and branching (Yoshimura et al., 2005 Cell, Kim et al. 2006 Neuron). Phosphorylation of CRMP2 by GSK-3 reduces CRMP2 binding to microtubules and thereby reduces axon elongation and branching. Conversely, inhibition of GSK-3, especially at levels that selectively affect TYR residue autophosphorylation, enhances these phenotypes. Compounds are tested in E16 rat hippocampal or cortical neurons to determine the ability to increase the level of axonal branching.
# 1 mg/ml stock of PDL is diluted into 100 μg/mL in DI water. The glass coverslips are coated for at least 1 hour at 37° C. prior to doing the dissection. PDL is aspirated and the plates are rinsed with PBS and air-dried in hood.
# Cortical or hippocampal lobes are combined with 9 mL of Base media (Neurobasal+Pen/Strep) and put on ice. 1 mL of 10× trypsin solution is added and the Mixture is swirled gently. The tissue is then digested via incubation in a 37° C. waterbath for 20 minutes. After 20 minutes, 10 μL/mL DNase (100 μL DNase) is added and the mixture is incubated for another 5 minutes.
# The cells are spun at 1000 rpm for 1 minute. The enzyme solution is then removed without removing any of the brain fragments sitting on the bottom. […] The cells are counted in a hemacytometer and seeded at 50,000 cells/well in a 12 well plate. […]
# [1] = system: human umbilical vein endothelial cells (HUVEC); test: In vitro model of angiogenesis using HUVEC and skin fibroblasts; type: cell-based; settings: HUVEC cultures
# Text: Compounds are screened for the ability to enhance angiogenesis in human umbilical vein endothelial cells (HUVEC). This method, adapted from Nakatsu et al., Microvas. Res. 2003, describes a protocol that recapitulates the major events essential for new vessel growth: budding, cell migration, cell proliferation, lumen formation, branching, and anastomosis.
# HUVEC are used between P3 and P4. HUVEC are mixed with dextran coated cytodex 3 micro-carriers (Amersham Pharmacia) at a concentration of 400 HUVEC per bead in 1 ml of EGM-2 (2% FBS) medium (Clonetics). Beads with cells are then shaken gently every 20 minutes for 4 hours at 37° C. and 5% CO2. After incubating, beads with cells are transferred to a T-25 tissue culture flask and left for 12-16 hours in 5 ml of EGM-2 at 37° C. and 5% CO2.
# The following day, beads with cells are washed three times with EGM-2 and re-suspended at a concentration of 200 cell-coated beads/ml in 2.5 mg/ml of fibrinogen (Sigma) with 0.15 U/ml of aprotinin (Sigma) at a pH of 7.4.
# 500 uL of fibrinogen/bead solution is then added to 0.625 U of thrombin (Sigma) in one well of a 24 well tissue culture plate. Fibrinogen/Bead solution is allowed to clot for 5 minutes at room temperature and then at 37° C. and 5% CO2 for 20 minutes. 1 mL of EGM-2 with 0.15 U/mL of aprotinin is then added to each well and equilibrated with the fibrin clot for 30 minutes at 37° C. and 5% CO2.
# Next, media is removed from the well and replaced with 1 mL of fresh medium. […]
# Angiogenesis is scored by quantification of images captured on an inverted microscope at 10× and 20× magnification for vessel length, number of vessels and branches per bead using NIH Image J software. […] YFP positive HUVEC are then cultured as described above and quantification of vessel formation is determined by calculating the area under the threshold fluorescence using NIH Image J software. In both cases, enhanced angiogenesis is determined by comparing compound treated cultures with a DMSO control culture at the same time point.
# GSK-3α/β pTYR = test: pTYR biomarker analysis in brain, Post Stroke Model II; type: in vivo, rat; settings: all doses, termination of study
# Experimental: To track the activity of Compound I-37 in the CNS of rats subjected to MCAO, brains were removed and protein lysate was obtained (as described herein) from both vehicle treated and compound treated animals at the termination of the study. Lysates were analyzed by Western blot and probed for GSK-3α/β pTYR levels.
# Protein lysate is obtained from the brains of all vehicle and compound-treated animals and is processed for biomarker analysis of GSK3α/β pTYR and β-catenin by Western blot assay to ensure compound activity on the target.
# [2] = concentrations shown to induce β-catenin
compound,measurement,setting,value
"Cc1nc(-c2ccccc2Cl)nc(Nc2n[nH]c3ncc(F)cc23)c1C [Compound I-37, N-(2-(2-chlorophenyl)-5,6-dimethylpyrhnidin-4-yl)-5-fluoro-1H-pyrazolo[3,4-b]pyridin-3-amine]",Inhibition of GSK-3 phosphorylation of substrate CRMP-2,CRMP2,correlated with inhibition of GSK-3 pTYR
same,vessel and network formation,"[1]; 10 nM, 7 days",increase vessel and network formation
same,cell proliferation,[1]; [2],increased cell proliferation was observed
same,vessel formation,[1]; [2],vessel formation was inhibited
same,pTYR signal compared to vehicle treated rats,GSK-3α/β pTYR,significant reduction
